Usually IC50 stands for the concentration needed to halve the response being measured. One may read the ED50 as the dose at which the effect has come halfway, by size or by number of responders.

Data on one compound can be found in patent US7968558B2, “Amidine derivatives of 2-heteroaryl-quinazolines and quinolines; potent analgesics and anti-inflammatory agents” (Rottapharm S.p.A., priority 2006, dated 2011).

One experiment relates to COX-2 expression. In words: IL-1β induced COX-2 expression in SW1353 human chondrosarcoma cell line. Type of experiment: cell-based. Particulars: Homo sapiens, SW1353, read-out: Inhibition of COX-2 expression in SW1353 human chondrosarcoma cell line, IC50. An excerpt: Conversely, compounds of the invention are able to inhibit, at micromolar concentration, IL-1β induced PGE2 production in cellular systems. This inhibition effect on the production of the pro-inflammatory mediator PGE2, instead of to be ascribed to a direct COX-2 inhibition, as happens with Celecoxib and other COX-2 inhibitors, is in this case due to inhibition of cytokine induced COX-2 expression as proven in cellular systems.
Effectiveness in inhibition of PGE2 production induced by IL-1β in chondrocyte cell culture, as well as inhibition in IL-1β induced COX-2 expression in SW1353 human chondrosarcoma cell line, is summarized in Table 2, for representative compounds of the invention.

The subject of the next experiment is IL-1 production. Briefly: IL-1 production in IL-1 stimulated human chondrosarcoma cell line. The format is cell-based. Particulars: Compound concentration is 10 μM. An excerpt:
(§1) The compounds of the invention have been found effective in interfering with cytokine production in several cell lines, representative examples of this effect are reported in Table 3, for two representative cytokines, in IL-1 stimulated human chondrosarcoma cell line.

The subject of the next experiment is IL-6 production. In words: IL-6 production in IL-1 stimulated human chondrosarcoma cell line. Type of experiment: cell-based. The note with it: Compound concentration is 10 μM.
Source text: as §1

Experiment [1] concerns Zymosan-induced mechanical hyperalgesia. In words: Zymosan-induced mechanical hyperalgesia (Randall-Selitto). Type of experiment: in vivo, rat. The note with it: oral. The protocol:
The interplantar injection of Zymosan-induced mechanical hyperalgesia was used as a model of inflammatory pain (Meller, Neuropharmacology, 1994, 33, 1471-1478). In this model, typically a male Sprague-Dawley or Wistar rat (200-250 g) receives an interplantar injection of 3 mg/100 μl zymosan into one hind paw. A marked inflammation occurs in this hind paw. Drugs are administered orally for evaluation of efficacy, 30 min. before the inflammatory insult. The hyperalgesia induced by zymosan administration was evaluated using the Randall-Selitto method (Arch. Int. Pharmacodyn., 1957, 111, 409). The quantitation of the analgesic effect is achieved by an analgesimeter, which consist in applying to the inflamed paw an increasing weight (from 130-140 g up to 500 g). The difference in the mechanical pain threshold between the basal value (generally 230-250 g) and the one tolerated by the animals treated with the drug, determined 4 hours after the inflammatory challenge, is defined as mechanical hyperalgesia.
Mechanical hyperalgesia is expressed for the compounds of the invention as ED50, which is the dose of the administered compound able to increase the pain threshold by 50% in comparison with the group of control animals. The corresponding ED100, representing the dose able of reducing of 100% the pain threshold, can be calculated for those cases where there is a linear dose-response relationship. In vivo anti-inflammatory effect exerted by the compound of the invention can be assessed in the same Zymosan induced inflammation test described above, by measuring the volume of the oedema induced by the inflammatory agent. The oedema was evaluated as the increase in the volume of the Zymosan injected paw within a time of 0-2 hrs. The measurements of the variation of the oedema volume of the paw were recorded using hydroplethysmometer, which consists of two plastic cuvettes containing a surfactant liquid, the larger one being used for immersion of the paw, connected to the smaller one which contains a trans-ducer capable of recording small displacements of the volume used for the measure. The paw is immersed in the cuvettes up to the tibiotarsal joint. The volume of the liquid displaced is proportional to the extent of the inflammation. The efficacy of the compounds of the invention in preventing oedema formation is expressed as ED30, and is measured 2 hours after the inflammatory challenge, and represents the dose able of reducing of 30%, the Zymosan induced paw volume increase in comparison to control animals (animals treated with Zymosan but treated with only distilled water instead of the testing compound). The corresponding ED50, representing the dose able of reducing of 50% the zymosan induced paw volume increase, can be calculated for those cases where there is a linear dose-response relationship.
In both the experiments, for each test compound, at least three doses were used, with 10 animals per group. Compounds of the invention were tested at 10, 20 and 40 mg/Kg.

The test system of a further experiment is CFA-induced hyperalgesia. In words: CFA model of chronic inflammatory pain. The format is in vivo, rat.
Experiment [2] has as its system acetic acid-induced abdominal writhes. Briefly: Acetic acid-induced writhing test. The note with it: for MPE (%): 30 min. before acetic acid. The format is in vivo, mice. The protocol:
With the aim of assessing whether the compounds of the invention are able to inhibit responses to peritoneal irritation-induced visceral pain, the acetic acid-induced writhing assay was used in mice to determine the degree of anti-nociception.
The writhing test is a model of inflammatory pain that has long been used as a screening tool for evaluation of analgesic and anti-inflammatory agents (HDJ Collier, B. J. Pharmacol Chemother., 1968, 32, 295-310). The test was performed inducing nociception by an i.p. injection of acetic acid 1%, 0.1 mL/10 g of body weight. Mice were pre-treated (subcutaneously, s.c., three different doses: 3, 10, 30 mg/Kg) with the tested compounds 30 min. before acetic acid injection, while control animals received a similar volume of saline solution. A group of mice was treated with Paracetamol (200 mg/Kg, s.c.) as reference drug. The number of abdominal writhes (full extension of both hind paws) was cumulatively counted every 5 minutes over a period of 20 min. immediately after the acetic acid injection. The anti-nociceptive activity was expressed as inhibition of abdominal writhes as maximum percent effect (MPE), which represents the difference (%) in pain threshold between the animals treated with the drug and the ones that received only the vehicle.
(In general: In writhing tests, fewer writhes than in controls are read as antinociception.)

As for `CC(=N)Nc1ccc2nc(-c3ccc4c(c3)OCO4)ncc2c1` [Example 1, N-[2-(1,3-benzodioxol-5-yl)quinazolin-6-yl]acetamidine], in the experiment with COX-2 expression, the IC50 was 4.6 µM. In the experiment with IL-1 production, the “Inhibition (%) of IL-1 production” value was found to be 50%. Besides, in the experiment on IL-6 production, the “Inhibition (%) of IL-6 production” value amounted to 65%. In addition, the ED50 in experiment [1] (Rattus norvegicus, 30 min before zymosan, 4 hours after challenge, read-out: Analgesia ED50) turned out to be 6 mg/kg; in experiment [2] (Mus musculus, sc, writhing test, read-out: ED50), 9.8 mg/kg. In experiment [1] (calculated from linear dose-response), the “Analgesia ED100” value was 18 mg/kg. Also, the “MPE 0.5 hrs.” value in the experiment with CFA-induced hyperalgesia (3 mg/Kg i.p.) amounted to 9%; in the experiment with CFA-induced hyperalgesia (10 mg/Kg i.p.), 28%; with CFA-induced hyperalgesia (30 mg/Kg i.p.) it was 418%. The “MPE 1.5 hrs.” value with CFA-induced hyperalgesia (10 mg/Kg i.p.) is listed as 47%; with CFA-induced hyperalgesia (30 mg/Kg i.p.), 395%. The “MPE 3 hrs.” value in the experiment on CFA-induced hyperalgesia (10 mg/Kg i.p.) was found to be 15%; with CFA-induced hyperalgesia (30 mg/Kg i.p.), 384%. Also, the “MPE 6 hrs.” value in the experiment with CFA-induced hyperalgesia (10 mg/Kg i.p.) came to 30%; in the experiment on CFA-induced hyperalgesia (30 mg/Kg i.p.), 132%. The “MPE 24 hrs.” value in the experiment on CFA-induced hyperalgesia (30 mg/Kg i.p., 24 hrs.) was determined as 60%. Moreover, the “MPE (%)” value in experiment [2] (3 mg/Kg s.c.) is 30%; in experiment [2] (10 mg/Kg s.c.), 33%; in experiment [2] (30 mg/Kg s.c.), 89%.
